# Measurements as given in patent publication US20060240026A1, “Preventing and/or remedy hematopoietic tumor” (GREEN PEPTIDE CO., LTD., priority 2003, published 2006).
# Where “and” joins values, the source holds several entries; their conditions need not be identical. Identical values can stand only once. Entries after “also recorded” stand apart in the source; their conditions may differ. Ends that are not written are not given here.
# What was measured:
# [1] = test system: HLA-A24+ hematologic malignant cell line (PEER, REH); experiment: 51Cr-release test of peptide-stimulated PBMCs against HLA-A24+ malignant line; assay type: cell-based, human; conditions: peptide-stimulated patient PBMCs further cultured with IL-2, effector/target 3, 10 or 30, 6 h
# Experimental: (§1) Then, the cytotoxicity against hematologic malignant cell lines was examined by a standard ^51Cr-release test (Non-Patent Reference 5). Specifically, the PBMCs obtained were used as an effector to mix with ^51Cr-labelled target cells (hereinafter referred to as targets) at an effector/target rate of 3, 10 or 30, and then incubated for six hours, followed by measuring the radioactivity of ^51Cr released in the supernatants. The results obtained were indicated as % lysis which was calculated by regarding a radioactivity as 100% when the targets were completely dissolved. The following targets were used: PEER, an HLA-A24^+ hematologic malignant cell line; HPB-MLT, an HLA-A24^− hematologic malignant cell line; and an HLA-A24^+ PHA blastoid T-cell.
# [2] = test system: HLA-A24- hematologic malignant cell line (HPB-MLT); experiment: 51Cr-release test of peptide-stimulated PBMCs against HLA-A24- malignant line; assay type: cell-based, human; conditions: peptide-stimulated patient PBMCs further cultured with IL-2; effector/target 3, 10 or 30; 6 h
# Experimental: as §1
# [3] = test system: HLA-A24+ PHA blastoid T-cell; experiment: 51Cr-release test of peptide-stimulated PBMCs against normal cells; assay type: cell-based, human; conditions: peptide-stimulated patient PBMCs further cultured with IL-2; effector/target 3, 10 or 30; 6 h
# Experimental: as §1
# [4] = test system: PBMCs of HLA-A24+ patients with hematologic malignancies; experiment: IFN-γ production by peptide-stimulated patient PBMCs in response to peptide-pulsed C1R-A24 cells; assay type: cell-based, human; parameters: peptide-specific IFN-γ production: unit not given here; conditions: for peptide-specific IFN-γ production: 10 μM peptide in vitro, vs peptide-pulsed C1R-A24, HIV-peptide background subtracted; for Responding case/total (enhancement of IFN-γ production): ten HLA-A24+ patients with hematologic malignancies
# Experimental: The induction of peptide-specific cytotoxic T lymphocytes from PBMCs of a patient with hematologic malignancy was conducted as reported preveously (Non-Patent Reference 5). The following peptides were used to induce cytotoxic T lymphocytes: p56^lck protein-derived peptides (Lck208 (SEQ ID NO: 1), Lck488 (SEQ ID NO: 2) and Lck486 (SEQ ID NO: 3)); SART-1-derived peptide (SART-1690 (SEQ ID NO: 4)); SART-2-derived peptides (SART-293 (SEQ ID NO: 5), SART-2161 (SEQ ID NO: 6) and SART-2899 (SEQ ID NO: 7)); SART-3-derived peptides (SART-3109 (SEQ ID NO: 8) and SART-3315 (SEQ ID NO: 9)); and ART-1-derived peptide (ART-1170 (SEQ ID NO: 10)). All of these peptides are the epithelial cancer-related antigen-derived peptides and have the ability to induce cytotoxic T lymphocytes from PBMCs of an epithelial cancer patient in an HLA-A24 dependent manner (Non-Patent References 3-6 and 12). A human immunodeficiency virus (HIV)-derived peptide (SEQ ID NO: 11) and Epstein-Barr virus (EBV)-derived peptide (SEQ ID NO: 12) were used respectively as a negative control peptide and positive control peptide both of which have an HLA-A24-binding motif. […] PBMCs were prepared from peripheral blood that was collected from a patient with hematologic malignancy using Ficoll-Conray density-gradient centrifugation. The expression of HLA-A24 molecules on PBMCs was determined using flow cytometry by a well known method (Non-Patent Reference 5). The induction of cytotoxic T lymphocytes from PBMCs was conducted as follows. […] The culture medium consisted of 45% RPMI-1640, 45% AIM-V (Invitrogen), 10% FCS, 100 U/ml of interleukin-2 (IL-2), and 0.1 mM MEM non-essential amino acid solution (Invitrogen). […] The background IFN-γ production in response to the HIV-derived peptide (SEQ ID NO: 11) was subtracted from the values given in the data. When the mean value of the IFN-γ produced from the peptide-stimulated PBMCs in response to a corresponding peptide was higher than that produced in response to the HIV peptide (SEQ ID NO: 11), it was judged that the precursor of a peptide-specific cytotoxic T lymphocyte was present in the PBMCs and that the peptide-specific cytotoxic T lymphocytes were induced by the peptide. PBMCs of ten cases of HLA-A24^+ patients with hematologic malignancies (two cases with CLL, one case with MCL, one case with NHL, one case with B-ALL, one case with MM, one case with MDS, two cases with ATL, and one case with T-ALL) were tested for the induction of cytotoxic T lymphocytes using peptides that were derived from p56^lck protein, SART-1, SART-2, SART-3 and ART-1. The peptides used were the peptides that induced peptide-specific tumor-reactive cytotoxic T lymphocytes from PBMCs of an HLA-A24^+ epithelial cancer patient, which are currently on clinical trials for use as vaccines for epithelial cancer patients. The PBMCs were stimulated with the peptide in vitro to measure the peptide-specific IFN-γ production.
# [5] = test system: C1R-A24 cells pulsed with the peptides; experiment: Peptide-specific cytotoxic activity of PBMCs of vaccinated multiple myeloma patient (51Cr-release); assay type: in vivo, human; conditions: for peptide-specific cytotoxic activity of PBMCs: MM patient No. 6, PBMCs acquired after the sixth vaccination; for cytotoxic activity (% lysis) against C1R-A24 cells pulsed with corresponding peptide: MM patient No. 6, with the increasing number of peptide vaccination
# Text: The patient (patient No. 6 in table 2) subjected to clinical trials was a HLA-A24^+ […] suffering from IgA-type multiple myeloma with a stage III by Durie & Salmon's classification. The patient received multiple cycles of chemotherapy before participating in this clinical test and had acquired the resistance to chemotherapy. However, for four weeks before peptide vaccination, the patient had not received chemotherapy and administration with steroid or any other immunosuppressive drugs.
# Three kinds of emulsions each of which contains each of these peptides respectively and an adjuvant were prepared according to the method described in Example 1, and vaccinated to the patient by injecting subcutaneously at different sites of the patient's lateral thigh. […] The skin test was conducted by injecting intradermally the solution of 50 μg of each peptide in physiological saline and determining immediate-type or delayed-type hypersensitivity reaction at 20 minutes or 24 hours after the injection.
# The vaccinations were conducted seven times every two weeks using SART-1690 (SEQ ID NO: 4), Lck488 (SEQ ID NO: 2) and ART-1170 (SEQ ID NO: 10). The cytotoxic activity of PBMCs acquired after the sixth vaccination was measured according to the in vitro test described in Example 3. […] Therefore, in the eighth and later vaccinations, three kinds of emulsions each of which contains SART-1690 (SEQ ID NO: 4), Lck488 (SEQ ID NO: 2) or Lck208 (SEQ ID NO: 1) and an adjuvant were prepared according to the method described in Example 1 and used.
# After the vaccinations, PBMCs derived from the patient were studied for their peptide-specific cytotoxic activity by ^51Cr-release test using C1R-A24 cells pulsed with the peptides used. […] On the other hand, their cytotoxic activity was extremely low against RPMI-8226 that is an HLA-A24^− myeloid cell line.
molecule,measurement,setting,value
AYDFLYNYL [SART-2161],cytotoxic activity (% lysis) against HLA-A24+ hematologic malignant line,[1],significant cytotoxic activity; also recorded: exhibited cytotoxic activity
same,cytotoxic activity (% lysis) against HLA-A24- hematologic malignant line,[2],did not show cytotoxic activity; also recorded: did not exhibit cytotoxic activity
same,cytotoxic activity (% lysis) against HLA-A24+ PHA blastoid T-cells,[3],did not show cytotoxic activity; also recorded: did not exhibit cytotoxic activity
SART-1690: SART-1-derived peptide; epithelial cancer-related antigen peptide (EYRGFTQDF; Partial peptide of SART-1),peptide-specific IFN-γ production,[4]; PBMCs of patient #1 CLL,0
same,peptide-specific IFN-γ production,[4]; PBMCs of patient #2 CLL,486
same,peptide-specific IFN-γ production,[4]; PBMCs of patient #3 MCL,0
same,peptide-specific IFN-γ production,[4]; PBMCs of patient #4 NHL,53
same,peptide-specific IFN-γ production,[4]; PBMCs of patient #5 B-ALL,8
same,peptide-specific IFN-γ production,[4]; PBMCs of patient #6 MM,141
same,peptide-specific IFN-γ production,[4]; PBMCs of patient #7 MDS,0
same,peptide-specific IFN-γ production,[4]; PBMCs of patient #8 ATL,55
same,peptide-specific IFN-γ production,[4]; PBMCs of patient #9 ATL,155
same,peptide-specific IFN-γ production,[4]; PBMCs of patient #10 T-ALL,26
same,Responding case/total (enhancement of IFN-γ production),[4],3/10
same,peptide-specific cytotoxic activity of PBMCs,[5],observed
SYTRLFLIL [SART-2899],cytotoxic activity (% lysis) against HLA-A24+ hematologic malignant line,[1],significant cytotoxic activity
same,cytotoxic activity (% lysis) against HLA-A24- hematologic malignant line,[2],did not show cytotoxic activity
same,cytotoxic activity (% lysis) against HLA-A24+ PHA blastoid T-cells,[3],did not show cytotoxic activity
"CSCC[C@H](NC(=O)[C@H](Cc1ccccc1)NC(=O)[C@@H](NC(=O)[C@@H]1CCCN1C(=O)CNC(=O)[C@H](Cc1ccc(O)cc1)NC(=O)[C@@H](N)[C@@H](C)O)C(C)C)C(=O)N[C@@H](CS)C(=O)N[C@@H](CC(C)C)C(=O)O [EBV, reference compound]",cytotoxic activity (% lysis) against HLA-A24+ hematologic malignant line,[1]; listed as EBV derive peptides,not observed
same,cytotoxic activity (% lysis) against HLA-A24+ hematologic malignant line,[1]; listed as EBV-derived peptide,exhibited no cytotoxic activity
same,cytotoxic activity (% lysis) against HLA-A24+ hematologic malignant line,[1]; listed as Epstein-Barr virus (EBV)-derived peptide,exhibited no cytotoxic activity
Lck488: p56lck protein-derived peptide; epithelial cancer-related antigen peptide (DYLRSVLEDF; Partial peptide of p56lck protein),peptide-specific IFN-γ production,[4]; PBMCs of patient #1 CLL,0
same,peptide-specific IFN-γ production,[4]; PBMCs of patient #2 CLL,0
same,peptide-specific IFN-γ production,[4]; PBMCs of patient #3 MCL,0
same,peptide-specific IFN-γ production,[4]; PBMCs of patient #4 NHL,0
same,peptide-specific IFN-γ production,[4]; PBMCs of patient #5 B-ALL,6
same,peptide-specific IFN-γ production,[4]; PBMCs of patient #6 MM,182
same,peptide-specific IFN-γ production,[4]; PBMCs of patient #7 MDS,102
same,peptide-specific IFN-γ production,[4]; PBMCs of patient #8 ATL,476
same,peptide-specific IFN-γ production,[4]; PBMCs of patient #9 ATL,304
same,peptide-specific IFN-γ production,[4]; PBMCs of patient #10 T-ALL,0
same,Responding case/total (enhancement of IFN-γ production),[4],four and 4/10
same,peptide-specific cytotoxic activity of PBMCs,[5],observed
same,cytotoxic activity (% lysis) against C1R-A24 cells pulsed with corresponding peptide,[5],enhanced induction of cytotoxic activity
SART-3315: SART-3-derived peptide; epithelial cancer-related antigen peptide (AYIDFEMKI; Partial peptide of SART-3),peptide-specific IFN-γ production,[4]; PBMCs of patient #1 CLL,39
same,peptide-specific IFN-γ production,[4]; PBMCs of patient #2 CLL,137
same,peptide-specific IFN-γ production,[4]; PBMCs of patient #3 MCL,6
same,peptide-specific IFN-γ production,[4]; PBMCs of patient #4 NHL,0
same,peptide-specific IFN-γ production,[4]; PBMCs of patient #5 B-ALL,11
same,peptide-specific IFN-γ production,[4]; PBMCs of patient #6 MM,0
same,peptide-specific IFN-γ production,[4]; PBMCs of patient #7 MDS,0
same,peptide-specific IFN-γ production,[4]; PBMCs of patient #8 ATL,22
same,peptide-specific IFN-γ production,[4]; PBMCs of patient #9 ATL,60
same,peptide-specific IFN-γ production,[4]; PBMCs of patient #10 T-ALL,6
same,Responding case/total (enhancement of IFN-γ production),[4],1/10
"RYLRDQQLLGI [HIV, reference compound]",cytotoxic activity (% lysis) against HLA-A24+ hematologic malignant line,[1]; listed as HIV-derived peptide,not observed
same,cytotoxic activity (% lysis) against HLA-A24+ hematologic malignant line,[1]; listed as human immunodeficiency virus (HIV)-derived peptide,exhibited no cytotoxic activity
"Lck208: p56lck protein-derived peptide, N-terminal residue at position 208; epithelial cancer-related antigen peptide (HYTNASDGL; Partial peptide of p56lck protein)",peptide-specific IFN-γ production,[4]; PBMCs of patient #1 CLL,0
same,peptide-specific IFN-γ production,[4]; PBMCs of patient #2 CLL,2
same,peptide-specific IFN-γ production,[4]; PBMCs of patient #3 MCL,22
same,peptide-specific IFN-γ production,[4]; PBMCs of patient #4 NHL,30
same,peptide-specific IFN-γ production,[4]; PBMCs of patient #5 B-ALL,0
same,peptide-specific IFN-γ production,[4]; PBMCs of patient #6 MM,0
same,peptide-specific IFN-γ production,[4]; PBMCs of patient #7 MDS,0
same,peptide-specific IFN-γ production,[4]; PBMCs of patient #8 ATL,0
same,peptide-specific IFN-γ production,[4]; PBMCs of patient #9 ATL,445
same,peptide-specific IFN-γ production,[4]; PBMCs of patient #10 T-ALL,153
same,Responding case/total (enhancement of IFN-γ production),[4],two and 2/10
same,peptide-specific cytotoxic activity of PBMCs,[5],observed
same,cytotoxic activity (% lysis) against C1R-A24 cells pulsed with corresponding peptide,[5],enhanced induction of cytotoxic activity
